From BindingDB's records for doi:10.7270/Q28G8J4C (Broad Institute, 2009)
“And” between values parts separate entries of the source, which are not always exact repeats. Identical values can stand only once.

Molecular target: T1, POsterior Segregation (Caenorhabditis elegans, UniProt G5EF15)
T1 sequence (G5EF15 whole entry): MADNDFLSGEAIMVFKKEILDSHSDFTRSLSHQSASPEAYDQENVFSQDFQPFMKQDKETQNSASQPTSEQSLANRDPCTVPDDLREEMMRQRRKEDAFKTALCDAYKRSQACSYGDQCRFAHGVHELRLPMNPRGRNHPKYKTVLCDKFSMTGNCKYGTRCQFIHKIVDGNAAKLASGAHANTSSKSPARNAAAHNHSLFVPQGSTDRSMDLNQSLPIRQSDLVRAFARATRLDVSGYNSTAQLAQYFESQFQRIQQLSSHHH
Test: disruptors of C. elegans POS-1 RNA interaction – biochemical, fluorescence polarization, dose response (AID 1964)

## CCOc1ccc(N2C(=O)NC(=O)C(=Cc3c[nH]c4ccccc34)C2=O)cc1 [(5E)-1-(4-ethoxyphenyl)-5-(1H-indol-3-ylmethylidene)-1,3-diazinane-2,4,6-trione]
  EC50: 20.9 µM

## O=C1NC(=S)N(c2ccc(F)cc2)C(=O)C1=Cc1ccco1 [(5E)-1-(4-fluorophenyl)-5-(2-furanylmethylidene)-2-sulfanylidene-1,3-diazinane-4,6-dione]
  EC50: 10.4 µM

## O=C1NC(=O)N(CCc2ccc(F)cc2)C(=O)C1=CNCCCn1ccnc1 [(5E)-1-[2-(4-fluorophenyl)ethyl]-5-[(3-imidazol-1-ylpropylamino)methylene]barbituric acid]
  EC50: > 300 µM

## C=CCN1C(=O)NC(=O)C(=CNc2ccc(N(CC)CC)cc2)C1=O [(5E)-1-allyl-5-[[4-(diethylamino)anilino]methylene]barbituric acid]
  EC50: 109 µM

## CCN(CC)c1ccc(NC=C2C(=O)NC(=O)N(Cc3ccccc3)C2=O)cc1 [(5E)-1-benzyl-5-[[4-(diethylamino)anilino]methylene]barbituric acid]
  EC50: 30.1 µM and > 300 µM

## O=C1NC(=O)N(Cc2ccccc2)C(=O)C1=CNc1ccc(CN2CCOCC2)cc1 [(5E)-1-benzyl-5-[[4-(morpholin-4-ylmethyl)anilino]methylidene]-1,3-diazinane-2,4,6-trione]
  EC50: > 300 µM

## Cc1c(NC=C2C(=O)NC(=O)N(Cc3ccccc3)C2=O)c(=O)n(-c2ccccc2)n1C [(5E)-1-benzyl-5-[[(1,5-dimethyl-3-oxo-2-phenylpyrazol-4-yl)amino]methylidene]-1,3-diazinane-2,4,6-trione]
  EC50: > 300 µM

## CCCCCCN1C(=O)NC(=O)C(=CNCCCn2ccnc2)C1=O [(5E)-1-hexyl-5-[[3-(1-imidazolyl)propylamino]methylidene]-1,3-diazinane-2,4,6-trione]
  EC50: > 300 µM

## O=C1NC(=O)N(CCc2ccccc2)C(=O)C1=CNCCCn1ccnc1 [(5E)-5-[(3-imidazol-1-ylpropylamino)methylene]-1-phenethyl-barbituric acid]
  EC50: > 300 µM

## COc1ccc(N2C(=O)NC(=O)C(=Cc3c[nH]c4ccc(Br)cc34)C2=O)c(OC)c1 [(5E)-5-[(5-bromo-1H-indol-3-yl)methylene]-1-(2,4-dimethoxyphenyl)pyrimidine-2,4,6(1H,3H,5H)-trione]
  EC50: > 300 µM

## CCN(CC)CCNC=C1C(=O)NC(=O)N(CCc2ccccc2)C1=O [(5E)-5-[[2-(diethylamino)ethylamino]methylene]-1-phenethyl-barbituric acid]
  EC50: > 300 µM

## CN(C)CCCNC=C1C(=O)NC(=O)N(CCc2ccc(F)cc2)C1=O [(5E)-5-[[3-(dimethylamino)propylamino]methylene]-1-[2-(4-fluorophenyl)ethyl]barbituric acid]
  EC50: > 300 µM

## CN(C)c1ccc(NC=C2C(=O)NC(=O)N(CCC3=CCCCC3)C2=O)cc1 [(5Z)-1-[2-(cyclohexen-1-yl)ethyl]-5-[[[4-(dimethylamino)phenyl]amino]methylidene]-1,3-diazinane-2,4,6-trione]
  EC50: > 300 µM

## CCN(CC)CCNC=C1C(=O)NC(=O)N(Cc2ccccc2)C1=O [(5Z)-1-benzyl-5-[[2-(diethylamino)ethylamino]methylene]barbituric acid]
  EC50: > 300 µM

## CCOC(=O)C1C(=O)C(=Cc2cn(CC(=O)N3CCCC3)c3ccccc23)S/C1=N\c1ccccc1 (centres undefined) [(5Z)-2-anilino-4-keto-5-[[1-(2-keto-2-pyrrolidino-ethyl)indol-3-yl]methylene]thiophene-3-carboxylic acid ethyl ester]
  EC50: 47.5 µM

## C/N=C1/S/C(=C\c2ccc(N3CCCC3)c(F)c2)C(=O)N1C [(5Z)-5-(3-fluoro-4-pyrrolidino-benzylidene)-3-methyl-2-methylimino-thiazolidin-4-one]
  EC50: 5.9 µM

## CC1=C(C#N)C(=O)N(C)C(=O)C1=CN [(5Z)-5-(aminomethylidene)-1,4-dimethyl-2,6-dioxopyridine-3-carbonitrile]
  EC50: > 300 µM

## C=CCN1C(=O)NC(=O)C(=CCC=Nc2ccccc2)C1=O [(5Z)-5-[(E)-3-phenylazanylprop-2-enylidene]-1-prop-2-enyl-1,3-diazinane-2,4,6-trione]
  EC50: > 300 µM

## Cc1cc(C=C2C(=O)NC(=O)N(c3ccccc3)C2=O)c(C)n1-c1ccc(F)cc1 [(5Z)-5-[[1-(4-fluorophenyl)-2,5-dimethyl-3-pyrrolyl]methylidene]-1-phenyl-1,3-diazinane-2,4,6-trione]
  EC50: 101 µM

## COc1cccc(CN=Nc2ncnc(N)c2[N+](=O)[O-])c1OC [(6-amino-5-nitro-pyrimidin-4-yl)-[(2,3-dimethoxybenzylidene)amino]amine]
  EC50: 18.4 µM

## C=CCc1cccc(C=Nn2cnnc2)c1O [(6E)-2-allyl-6-[(1,2,4-triazol-4-ylamino)methylene]cyclohexa-2,4-dien-1-one]
  EC50: 226 µM

## COc1ccc(N=Cc2cc3c(cc2O)OC(=N)C(C#N)C3c2ccccc2)cc1 (centres undefined) [(6E)-2-amino-6-[(4-methoxyanilino)methylidene]-7-oxo-4-phenyl-4H-1-benzopyran-3-carbonitrile]
  EC50: > 300 µM

## Cc1n[nH]c(C)c1Sc1ccccc1/N=C/C1C=C(Cl)C=C([N+](=O)[O-])C1=O (centres undefined) [(6E)-4-chloranyl-6-[[[2-[(3,5-dimethyl-1H-pyrazol-4-yl)sulfanyl]phenyl]amino]methylidene]-2-nitro-cyclohexa-2,4-dien-1-one]
  EC50: > 300 µM

## C=CC1=C(C(=O)O)N2C(=O)[C@@H](NC(=O)C(N=O)c3csc(N)n3)[C@H]2SC1 (stereo partly drawn) [(6R,7R)-7-[[2-(2-azanyl-1,3-thiazol-4-yl)-2-hydroxyimino-ethanoyl]amino]-3-ethenyl-8-oxidanylidene-5-thia-1-azabicyclo[4.2.0]oct-2-ene-2-carboxylic acid]
  EC50: 49.8 µM

## CCn1nc(C)c(C=C2CCCC3=C2OC(=N)C(C#N)C3c2c(C)nn(CC)c2C)c1C (centres undefined) [(8E)-2-amino-4-(1-ethyl-3,5-dimethyl-1H-pyrazol-4-yl)-8-[(1-ethyl-3,5-dimethyl-1H-pyrazol-4-yl)methylene]-5,6,7,8-tetrahydro-4H-chromene-3-carbonitrile]
  EC50: 36 µM

## CCOC(=O)N1CCC2=C(C#N)C(=N)C(C#N)(C#N)[C@H](c3ccsc3)[C@H]2C1 [(8R,8aR)-6-amino-5,7,7-tricyano-8-(3-thienyl)-1,3,8,8a-tetrahydroisoquinoline-2-carboxylic acid ethyl ester]
  EC50: 78.8 µM

## N#CC1=C2CCOC[C@@H]2[C@@H](c2ccsc2)C(C#N)(C#N)C1=N [(8R,8aR)-6-amino-8-(3-thienyl)-1,3,8,8a-tetrahydroisochromene-5,7,7-tricarbonitrile]
  EC50: > 300 µM

## CN1CCC2=C(C#N)C(=N)C(C#N)(C#N)[C@H](c3cccc(Cl)c3)C2C1 (stereo partly drawn) [(8S)-6-amino-8-(3-chlorophenyl)-2-methyl-1,3,8,8a-tetrahydroisoquinoline-5,7,7-tricarbonitrile]
  EC50: 12.5 µM

## CC(C)(C)OC(=O)N1CCC2=C(C#N)C(=N)C(C#N)(C#N)[C@H](c3cccnc3)[C@H]2C1 [(8S,8aR)-6-amino-5,7,7-tricyano-8-(3-pyridinyl)-1,3,8,8a-tetrahydroisoquinoline-2-carboxylic acid tert-butyl ester]
  EC50: 61.7 µM

## C[C@@H]1O[C@@H](O[C@@H]2[C@@H](O)[C@H](OCCc3ccc(O)c(O)c3)O[C@H](CO)[C@H]2OC(=O)/C=C/c2ccc(O)c(O)c2)[C@H](O)[C@H](O)[C@H]1O [((2R,3R,4R,5R,6R)-6-(3,4-dihydroxyphenethoxy)-5-hydroxy-2-(hydroxymethyl)-4-((2S,3R,4R,5R,6S)-3,4,5-trihydroxy-6-methyltetrahydro-2H-pyran-2-yloxy)tetrahydro-2H-pyran-3-yl) 3-(3,4-dihydroxyphenyl)acrylate]
  EC50: 20.6 µM

## COc1ccc(C(=O)CC=Nc2ccc([N+](=O)[O-])cc2C)c(OC)c1 [(E)-1-(2,4-dimethoxyphenyl)-3-(2-methyl-4-nitro-anilino)prop-2-en-1-one]
  EC50: > 300 µM

## COc1ccc(C(=O)CC=Nc2ccc([N+](=O)[O-])cc2C)cc1OC [(E)-1-(3,4-dimethoxyphenyl)-3-(2-methyl-4-nitro-anilino)prop-2-en-1-one]
  EC50: 54.6 µM

## O=C(CC=Nc1ccc([N+](=O)[O-])cc1)c1ccc(Br)cc1 [(E)-1-(4-bromophenyl)-3-(4-nitroanilino)-2-propen-1-one]
  EC50: > 300 µM

## Cc1ccc(N=CCC(=O)c2sc(-c3ccccc3)nc2C)cc1 [(E)-1-(4-methyl-2-phenyl-1,3-thiazol-5-yl)-3-(4-toluidino)-2-propen-1-one]
  EC50: 46.4 µM

## CC(=N)C(C#N)C(=O)CSc1ncnc2ccccc12 (centres undefined) [(E)-3-amino-2-(2-quinazolin-4-ylsulfanylacetyl)but-2-enenitrile]
  EC50: > 300 µM

## O=CC(C=Nc1ccccn1)c1nc2cc(Cl)ccc2o1 (centres undefined) [(Z)-2-(5-chloranyl-1,3-benzoxazol-2-yl)-3-(pyridin-2-ylamino)prop-2-enal]
  EC50: 67.7 µM

## COc1ccc(CCN2C(=O)NC(=O)C(=CNNC(=O)c3ccncc3)C2=O)cc1OC [Isonicotinic acid N'-[1-[2-(3,4-dimethoxy-phenyl)-ethyl]-2,4,6-trioxo-tetrahydro-pyrimidin-(5E)-ylidenemethyl]-hydrazide]
  EC50: 150 µM

## CCCCN1C(=O)NC(=O)C(=CNNC(=O)c2ccncc2)C1=O [Isonicotinic acid N'-[1-butyl-2,4,6-trioxo-tetrahydro-pyrimidin-(5E)-ylidenemethyl]-hydrazide]
  EC50: > 300 µM

## COc1cc(C2C3CN(C)CCC3=C(C#N)C(=N)C2(C#N)C#N)ccc1OC(C)C (centres undefined) [MLS000034945]
  EC50: > 300 µM

## CC(=O)N1CCN(c2ccc(NC=C3C(=O)NC(=O)N(Cc4ccccc4)C3=O)cc2)CC1 [MLS000041641]
  EC50: > 300 µM

## CC(=O)Nc1ccc(N=CCC(=O)c2ccc(C)o2)cc1 [MLS000089004]
  EC50: > 300 µM

## COc1ccc(CCN2C(=O)NC(=O)C(=CNc3ccc(NC(C)=O)cc3)C2=O)cc1OC [MLS000332913]
  EC50: > 300 µM

## O=C1CCCC2=Nc3cc(Cl)ccc3SC12 (centres undefined) [MLS000333002]
  EC50: 18.4 µM

## CCCCCCN1C(=O)C(=CNc2ccccc2N2CCOCC2)C(=O)NC1=S [MLS000333666]
  EC50: > 300 µM
